Source: ChEMBL document CHEMBL3638998, “17Beta-hydroxysteroid dehydrogenase type 1 inhibitors for the treatment of hormone-related diseases” (2013)

Biological target: CYP2C9 (Homo sapiens, UniProt P11712)
Experiment: Inhibition Assay: Inhibition assay using P450 CYP enzymes.

CYP2C9, sequence (P11712 whole entry): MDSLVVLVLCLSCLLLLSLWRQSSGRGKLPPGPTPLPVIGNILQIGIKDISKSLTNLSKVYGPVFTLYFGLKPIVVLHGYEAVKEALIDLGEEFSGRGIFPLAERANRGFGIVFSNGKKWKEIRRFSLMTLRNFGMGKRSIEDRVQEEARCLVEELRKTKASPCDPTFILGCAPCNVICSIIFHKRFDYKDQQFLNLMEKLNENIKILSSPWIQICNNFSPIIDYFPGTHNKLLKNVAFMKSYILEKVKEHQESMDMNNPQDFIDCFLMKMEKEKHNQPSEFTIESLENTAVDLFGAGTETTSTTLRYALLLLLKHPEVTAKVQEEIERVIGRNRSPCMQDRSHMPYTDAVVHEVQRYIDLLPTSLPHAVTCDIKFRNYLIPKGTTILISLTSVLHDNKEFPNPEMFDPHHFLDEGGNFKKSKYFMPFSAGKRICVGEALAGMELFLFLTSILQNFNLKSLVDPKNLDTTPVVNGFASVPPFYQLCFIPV

With `CNC(=O)/C=C/c1cc(OC)cc(-c2ccc3cc(OC)ccc3c2)c1` the IC50 was 30 nM.
